Consider 20 compounds from patent US11026942B2, “Agent for preventing and/or treating Alzheimer's disease” (KYOTO UNIVERSITY, priority 2015, dated 2021).

Format in all cases: cell-based, human
For one test, the system named is sAPPβ. In words: sAPPβ in FAD1 iPS cell-derived nerve cells (secondary screening). Also on record: sAPPβ: scale not given here. Conditions: secondary screening, FAD1 iPS cell-derived nerve cells. The procedure:
(§1) To further study reproducibility of the candidate drugs obtained by the primary screening, secondary screening was conducted. In addition to Aβ40, Aβ42, Aβ42/40 ratio, Aβ38, Aβ43, sAPPα, sAPPβ were also studied and each numerical value was obtained.

For a further test, the system named is Aβ38. In words: Aβ38 in FAD1 iPS cell-derived nerve cells (secondary screening). Also on record: scale not given here. How it is done:
as §1

The test system of a further test is Aβ43. The test can be described thus: Aβ43 in FAD1 iPS cell-derived nerve cells (secondary screening). On the set-up: scale not given here. The procedure: as §1
For a further test, the system named is Aβ42. In words: Aβ42 in FAD1 iPS cell-derived nerve cells (primary/secondary screening, dose dependency). The note with it: secondary screening, FAD1 iPS cell-derived nerve cells, numerical value (Aβ change rate). The method in brief:
(§2)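 Cerebral cortex neurons were induced from FAD1 patient iPS cells by doxycycline-inducible NGN2, delivered by PiggyBac. Aβ40 and Aβ42 in the culture medium gave the Aβ42/40 ratio, with dose dependency examined in primary and secondary screens. The secondary screen also covered Aβ38, Aβ43, sAPPα and sAPPβ.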

The test system of the next test is Aβ42/40 ratio. In words: Aβ42/40 ratio in FAD1 iPS cell-derived nerve cells (primary/secondary screening, dose dependency). The note with it: secondary screening. The method in brief: as §2
A further test relates to sAPPα. The test can be described thus: sAPPα in FAD1 iPS cell-derived nerve cells (secondary screening). On the set-up: scale not given here. The note with it: secondary screening, FAD1 iPS cell-derived nerve cells. The procedure: as §1

Turning to `CC1(C)C(C=C(Cl)Cl)C1C(=O)OC(C#N)c1cccc(Oc2ccccc2)c1` (stereo not drawn) [compound 38, CYPERMETHRIN], in the test with sAPPβ, the sAPPβ amounted to 0.88. Besides, the Aβ38 with Aβ38 came to 0.97. This compound returned an Aβ43 with Aβ43 of 0.95. The Aβ42 in the test with Aβ42 is given as 0.83. In addition, the “Ratio Aβ42/40” value in the test on Aβ42/40 ratio was found to be 0.87. For the same compound, in the test with sAPPα, the sAPPα amounted to 0.85.
The compound `CC1(C)O[C@@H]2[C@@H](CO[C@@]3(COS(N)(=O)=O)OC(C)(C)O[C@@H]23)O1` [compound 100, TOPIRAMATE] yielded a sAPPβ in the test with sAPPβ of 0.78. For the same compound, the Aβ38 in the test with Aβ38 turned out to be 0.9. In addition, in the test with Aβ43, the Aβ43 worked out at 1.02. Moreover, in the test with Aβ42, the Aβ42 is recorded as 0.79. In addition, the “Ratio Aβ42/40” value with Aβ42/40 ratio worked out at 0.92. Moreover, the sAPPα with sAPPα turned out to be 0.81.
In turn, `CCN(CCCc1ccccc1)CCCc1ccccc1` [compound 7, ALVERINE] showed a sAPPβ with sAPPβ of 0.63. The compound further gave an Aβ38 with Aβ38 of 0.94. In the test on Aβ43, the Aβ43 is 0.79. For the same compound, in the test with Aβ42, the Aβ42 was determined as 0.86. Moreover, in the test on Aβ42/40 ratio, the “Ratio Aβ42/40” value came to 0.93. The compound further returned a sAPPα in the test on sAPPα of 0.78.
The compound `Nc1ccc(C(=O)O)c(O)c1` [compound 50, AMINOSALICYLATE] gave a sAPPβ in the test with sAPPβ of 1.31. In the test with Aβ38, this compound displayed an Aβ38 of 1.2. Besides, in the test with Aβ43, the Aβ43 is 1.22. In the test with Aβ42, the Aβ42 worked out at 1.03. In the test with Aβ42/40 ratio, the “Ratio Aβ42/40” value is given as 1.08. Also, in the test with sAPPα, the sAPPα was 1.
In the test with sAPPβ, `C=C[C@H]1CN2CC[C@H]1C[C@H]2[C@H](OC(=O)OCC)c1ccnc2ccc(OC)cc12` [compound 41, QUININE ETHYL CARBONATE] showed a sAPPβ of 0.72. In the test on Aβ38, the Aβ38 came out at 1.05. For the same compound, the Aβ43 with Aβ43 is listed as 0.88. The same compound came in with an Aβ42 in the test with Aβ42 of 0.85. Also, in the test with Aβ42/40 ratio, the “Ratio Aβ42/40” value is 0.77. In the test on sAPPα, this compound displayed a sAPPα of 0.84.
In the test with sAPPβ, `NCC(=O)CCC(=O)O` [compound 47, AMINOLEVULINIC ACID] returned a sAPPβ of 1.4. This compound yielded an Aβ38 in the test with Aβ38 of 1.29. The compound also registered an Aβ43 in the test on Aβ43 of 1.16. The same compound came in with an Aβ42 with Aβ42 of 1.06. For the same compound, the “Ratio Aβ42/40” value in the test on Aβ42/40 ratio is 0.97. This compound also came in with a sAPPα in the test on sAPPα of 1.15.
In the case of `O=C(O)c1cc(=O)c2c(OCC(O)COc3cccc4oc(C(=O)O)cc(=O)c34)cccc2o1` [compound 11, CROMOLYN], the sAPPβ in the test with sAPPβ is 0.86. In addition, the Aβ38 with Aβ38 came out at 1.04. The compound further showed an Aβ43 in the test on Aβ43 of 0.82. Moreover, in the test on Aβ42, the Aβ42 came to 0.88. Besides, the “Ratio Aβ42/40” value in the test on Aβ42/40 ratio was found to be 0.96. Moreover, the sAPPα in the test on sAPPα is on record as 0.89.
In the test with sAPPβ, `Cc1c(C(N)=O)cc([N+](=O)[O-])cc1[N+](=O)[O-]` [compound 95, DINITOLMIDE] showed a sAPPβ of 1.02. In the test on Aβ38, the Aβ38 stood at 1. Moreover, the Aβ43 in the test with Aβ43 came out at 0.98. Moreover, the Aβ42 with Aβ42 was 0.9. Moreover, the “Ratio Aβ42/40” value with Aβ42/40 ratio was 0.95. In addition, the sAPPα with sAPPα was 0.95.
With `CCCc1nc(C(C)(C)O)c(C(=O)OCc2oc(=O)oc2C)n1Cc1ccc(-c2ccccc2-c2nn[nH]n2)cc1` [compound 61, OLMESARTAN MEDOXOMIL], the sAPPβ in the test with sAPPβ amounted to 0.86. The same compound registered an Aβ38 with Aβ38 of 0.85. The compound also gave an Aβ43 in the test with Aβ43 of 0.9. Moreover, the Aβ42 with Aβ42 was found to be 0.82. Besides, the “Ratio Aβ42/40” value in the test with Aβ42/40 ratio amounted to 0.86. This compound also yielded a sAPPα in the test with sAPPα of 0.8.
Compound `O=C(O)C(O)[C@H](O)[C@@H](O)[C@H](O)[C@H](O)CO` (stereo partly drawn) [compound 56, GLUCOHEPTONIC ACID] came in with a sAPPβ with sAPPβ of 1.19. The Aβ38 in the test with Aβ38 was found to be 1.21. Moreover, the Aβ43 in the test with Aβ43 was determined as 1.32. In the test on Aβ42, this compound returned an Aβ42 of 0.98. Also, the “Ratio Aβ42/40” value with Aβ42/40 ratio is on record as 1.09. In the test on sAPPα, this compound displayed a sAPPα of 1.22.
Take `CN1Cc2c(N)cccc2C(c2ccccc2)C1` (stereo not drawn) [compound 28, NOMIFENSINE]: in the test on sAPPβ, the sAPPβ worked out at 0.67. The compound further showed an Aβ38 in the test on Aβ38 of 0.95. In the test on Aβ43, this compound had an Aβ43 of 0.85. The same compound displayed an Aβ42 in the test on Aβ42 of 0.8. Also, the “Ratio Aβ42/40” value in the test with Aβ42/40 ratio turned out to be 0.75. In addition, in the test with sAPPα, the sAPPα is reported as 0.82.
In the test on sAPPβ, `CC(C)(Sc1cc(C(C)(C)C)c(O)c(C(C)(C)C)c1)Sc1cc(C(C)(C)C)c(O)c(C(C)(C)C)c1` [compound 96, PROBUCOL] yielded a sAPPβ of 1.07. The compound further yielded an Aβ38 with Aβ38 of 0.75. The same compound gave an Aβ43 with Aβ43 of 0.65. The compound also registered an Aβ42 in the test with Aβ42 of 0.6. The “Ratio Aβ42/40” value in the test with Aβ42/40 ratio is recorded as 0.7. In addition, the sAPPα with sAPPα is recorded as 1.
In the test with sAPPβ, `COc1ccc(C(=O)c2ccccc2O)c(O)c1` [compound 54, DIOXYBENZONE] came in with a sAPPβ of 0.75. Besides, in the test with Aβ38, the Aβ38 is 1.16. Moreover, the Aβ43 in the test with Aβ43 stood at 0.83. Further, in the test on Aβ42, the Aβ42 was 0.93. In the test on Aβ42/40 ratio, the “Ratio Aβ42/40” value amounted to 1.02. In the test with sAPPα, this compound had a sAPPα of 0.72.
For `CN(C)C(=O)C(CCN1CCC(O)(c2ccc(Cl)cc2)CC1)(c1ccccc1)c1ccccc1` [compound 6, LOPERAMIDE], in the test on sAPPβ, the sAPPβ stood at 0.78. Besides, the Aβ38 in the test on Aβ38 was determined as 1.03. For the same compound, in the test on Aβ43, the Aβ43 was determined as 0.88. In the test with Aβ42, this compound gave an Aβ42 of 0.88. Further, the “Ratio Aβ42/40” value in the test with Aβ42/40 ratio stood at 0.93. Moreover, the sAPPα with sAPPα was 0.89.
As for `O=C(CCNNC(=O)c1ccncc1)NCc1ccccc1` [compound 34, NIALAMIDE], the sAPPβ with sAPPβ was found to be 1.13. The compound further returned an Aβ38 in the test with Aβ38 of 1.16. Moreover, the Aβ43 in the test on Aβ43 came to 0.97. The same compound displayed an Aβ42 in the test with Aβ42 of 0.92. For the same compound, the “Ratio Aβ42/40” value in the test with Aβ42/40 ratio was 0.87. The same compound yielded a sAPPα in the test on sAPPα of 0.92.
For the compound `Oc1c(Cl)cc(Cl)cc1Sc1cc(Cl)cc(Cl)c1O` [compound 88, BITHIONOL], the sAPPβ in the test with sAPPβ is 0.92. The Aβ38 in the test on Aβ38 came to 1.03. Besides, the Aβ43 in the test with Aβ43 is 0.85. This compound registered an Aβ42 with Aβ42 of 0.93. For the same compound, the “Ratio Aβ42/40” value with Aβ42/40 ratio was 0.97. In the test with sAPPα, this compound returned a sAPPα of 0.78.
Turning to `COc1ccccc1N1CCN(CC(O)COc2cccc3ccccc23)CC1` (stereo not drawn) [compound 39, NAFTOPIDIL], the sAPPβ with sAPPβ came to 0.64. This compound displayed an Aβ38 with Aβ38 of 1.1. Further, the Aβ43 with Aβ43 stood at 0.9. In addition, the Aβ42 in the test on Aβ42 was 0.86. Moreover, in the test with Aβ42/40 ratio, the “Ratio Aβ42/40” value stood at 0.86. The sAPPα in the test on sAPPα stood at 0.73.
In the test with sAPPβ, `CCCCOc1ccc(C(=O)CCN2CCCCC2)cc1` [compound 55, DYCLONINE] gave a sAPPβ of 0.76. The Aβ38 with Aβ38 came to 1.07. The Aβ43 with Aβ43 is 0.9. The compound also displayed an Aβ42 in the test on Aβ42 of 0.94. The “Ratio Aβ42/40” value with Aβ42/40 ratio was 0.99. This compound displayed a sAPPα with sAPPα of 0.83.
As for `O=C1CCc2cc(OCCCCc3nnnn3C3CCCCC3)ccc2N1` [compound 107, CILOSTAZOL], in the test with sAPPβ, the sAPPβ came out at 0.68. This compound yielded an Aβ38 with Aβ38 of 1.01. The same compound came in with an Aβ43 in the test on Aβ43 of 0.82. This compound showed an Aβ42 in the test with Aβ42 of 0.85. Moreover, the “Ratio Aβ42/40” value in the test with Aβ42/40 ratio is given as 0.86. In addition, in the test with sAPPα, the sAPPα was found to be 0.78.
As to `Cc1cc2cc3c(C)cc(=O)oc3c(C)c2o1` [compound 91, TRIOXSALEN], the sAPPβ in the test with sAPPβ is 1.02. This compound also had an Aβ38 in the test on Aβ38 of 0.97. The Aβ43 in the test on Aβ43 was found to be 1.01. This compound gave an Aβ42 in the test on Aβ42 of 0.84. The “Ratio Aβ42/40” value in the test on Aβ42/40 ratio turned out to be 0.95. Moreover, in the test on sAPPα, the sAPPα is listed as 0.82.
